Measured values reported in US20240166652A1, “MODULATORS OF THE INTEGRATED STRESS PATHWAY” (Calico Life Sciences LLC, priority 2017, published 2024).

Tested on: ATF4 luciferase reporter in HEK293T cells
Test: ATF4-Luc assay (ATF4 luciferase reporter, tunicamycin-treated HEK293T cells)
Assay type: cell-based, human
Conditions: Homo sapiens, HEK-293T; HEK293T cells carrying the ATF4 luciferase reporter, 1 μg/mL tunicamycin, 7 hours

**Q.** Which EC50 does the source give for `COc1cc(OCC(=O)NC23CCC(NC(=O)COc4ccc(Cl)c(F)c4)(CC2)C[C@@H]3O)nc(SC)n1` [Compound 497, 2-(4-chloro-3-fluorophenoxy)-N-[(3S)-3-hydroxy-4-(2-{[6-methoxy-2-(methylsulfanyl)pyrimidin-4-yl]oxy}acetamido)bicyclo[2.2.2]octan-1-yl]acetamide] here?
**A.** 500 to 2000 nM

**Q.** `O=C(COc1ccc(Cl)c(F)c1)NC12CC(NC(=O)Cc3cccnc3)(C1)C2` [Compound 458, 2-(4-chloro-3-fluorophenoxy)-N-{3-[2-(pyridin-3-yl)acetamido]bicyclo[1.1.1]pentan-1-yl}acetamide] was tested. Which EC50 did it give?
**A.** > 2000 nM

**Q.** Which EC50 does the source give for `Cc1cc(OCC(=O)NC23CC(NC(=O)COc4ccc(Cl)c(F)c4)(C2)C3)cnc1Cl` [Compound 226, 2-(4-chloro-3-fluorophenoxy)-N-(3-{2-[(6-chloro-5-methylpyridin-3-yl)oxy]acetamido}bicyclo[1.1.1]pentan-1-yl)acetamide] here?
**A.** 10 to 50 nM

**Q.** For `O=C(COc1ccc(Cl)c(F)c1)NC12CCC(NC(=O)COc3ccc(Cl)c(F)c3)(CC1)C(NCC(F)(F)F)C2` (centres unmarked) [Compound 714, N,N′-{2-[(2,2,2-trifluoroethyl)amino]bicyclo[2.2.2]octane-1,4-diyl}bis[2-(4-chloro-3-fluorophenoxy)acetamide]], which EC50 is on record?
**A.** 10 to 50 nM

**Q.** For `CN(C(=O)COc1ccc(Cl)c(F)c1)C12CCC(NC(=O)COc3ccc(Cl)c(F)c3)(CC1)[C@@H](O)C2` [Compound 444, 2-(4-chloro-3-fluorophenoxy)-N-{(3S)-4-[2-(4-chloro-3-fluorophenoxy)acetamido]-3-hydroxybicyclo[2.2.2]octan-1-yl}-N-methylacetamide], which EC50 is on record?
**A.** 10 to 50 nM

**Q.** With `CS(=O)(=O)c1ccc(OCC(=O)NC23CCC(NC(=O)COc4ccc(F)cc4)(CC2)[C@@H](O)C3)cc1F` [Compound 767, 2-[3-fluoro-4-(methanesulfonyl)phenoxy]-N-{(3S)-4-[2-(4-fluorophenoxy)acetamido]-3-hydroxybicyclo[2.2.2]octan-1-yl}acetamide] as the compound, how does the EC50 read?
**A.** 250 to 500 nM

**Q.** For `O=C(COCc1ccc(Cl)cc1)NC12CC(NC(=O)COc3ccc(Cl)c(F)c3)(C1)C2` [Compound 130, 2-(4-chloro-3-fluorophenoxy)-N-(3-{2-[(4-chlorophenyl)methoxy]acetamido}-bicyclo[1.1.1]pentan-1-yl)acetamide], which EC50 is on record?
**A.** 10 to 50 nM

**Q.** How did the EC50 turn out when `O=C(COc1ccc(Cl)c(F)c1)NC12CCC(NC(=O)COc3ccc(Cl)c(F)c3)(CC1)[C@H](O)C2` (single isomer, unassigned) [Compound 298] was run?
**A.** < 10 nM

**Q.** With `O=C(CCn1ncc(Cl)cc1=O)NC12CC(NC(=O)COc3ccc(Cl)c(F)c3)(C1)C2` [Compound 104, N-{3-[2-(4-chloro-3-fluorophenoxy)acetamido]bicyclo[1.1.1]pentan-1-yl}-3-(4-chloro-6-oxopyridazin-1(6H)-yl)propanamide] as the compound, how does the EC50 read?
**A.** 250 to 500 nM

**Q.** How did the EC50 turn out when `O=C(COCc1ccccc1)NC12CC(NC(=O)COc3ccc(Cl)c(F)c3)(C1)C2` [Compound 207, 2-(benzyloxy)-N-{3-[2-(4-chloro-3-fluorophenoxy)acetamido]-bicyclo[1.1.1]pentan-1-yl}acetamide] was run?
**A.** 50 to 250 nM

**Q.** How did the EC50 turn out when `O=C(COc1ccc(Cl)cc1)NC12CCC(NC(=O)COc3cc(F)c4cn[nH]c4c3)(CC1)CC2` [Compound 739, 2-(4-chlorophenoxy)-N-(4-{2-[(4-fluoro-1H-indazol-6-yl)oxy]acetamido}bicyclo[2.2.2]octan-1-yl)acetamide] was run?
**A.** < 10 nM

**Q.** For `CC(C)(C)[Si](C)(C)OCCN(C(=O)COc1ccc(Cl)c(F)c1)C12CC(NC(=O)COc3ccc(Cl)c(F)c3)(C1)C2` [Compound 189, N-(2-{[tert-butyl(dimethyl)silyl]oxy}ethyl)-2-(4-chloro-3-fluorophenoxy)-N-{3-[2-(4-chloro-3-fluorophenoxy)acetamido]bicyclo[1.1.1]pentan-1-yl}acetamide], which EC50 is on record?
**A.** 500 to 2000 nM

**Q.** With `O=C(COc1ccc(F)cc1)NC12CCC(NC(=O)COc3ccc(Cl)cc3)(CC1)[C@@H](O)C2` [Compound 616, 2-(4-chlorophenoxy)-N-{(2S)-4-[2-(4-fluorophenoxy)acetamido]-2-hydroxybicyclo[2.2.2]octan-1-yl}acetamide] as the compound, how does the EC50 read?
**A.** < 10 nM

**Q.** How did the EC50 turn out when `O=C(COc1ccc(Cl)c(F)c1)NC12CC(NC(=O)COc3ccc(OC(F)(F)F)c(F)c3)(C1)C2` [Compound 415, 2-(4-chloro-3-fluorophenoxy)-N-(3-{2-[3-fluoro-4-(trifluoromethoxy)phenoxy]acetamido}bicyclo[1.1.1]pentan-1-yl)acetamide] was run?
**A.** < 10 nM

**Q.** Which EC50 does the source give for `O=C(COc1ccc(Cl)c(F)c1)NC12CC(NC(=O)COc3ccc(Cl)cn3)(C1)C2` [Compound 213, 2-(4-chloro-3-fluorophenoxy)-N-(3-{2-[(5-chloropyridin-2-yl)oxy]acetamido}bicyclo[1.1.1]pentan-1-yl)acetamide] here?
**A.** 50 to 250 nM

**Q.** Which EC50 does the source give for `O=C(COc1ccc(F)c(Cl)c1)NC12CC(NC(=O)COc3ccc(Cl)c(Cl)c3)(C1)C2` [Compound 533, 2-(3-chloro-4-fluorophenoxy)-N-{3-[2-(3,4-dichlorophenoxy)acetamido]bicyclo[1.1.1]pentan-1-yl}acetamide] here?
**A.** < 10 nM

**Q.** `O=C(COc1ccc(Cl)cc1)NC12CC(NC(=O)COc3cccc(C(F)(F)F)n3)(C1)C2` [Compound 836, 2-(4-chlorophenoxy)-N-[3-(2-{[6-(trifluoromethyl)pyridin-2-yl]oxy}acetamido)bicyclo[1.1.1]pentan-1-yl]acetamide] was tested. Which EC50 did it give?
**A.** 250 to 500 nM

**Q.** Which EC50 does the source give for `CC(C)(O)c1ccc(OCC(=O)NC23CC(NC(=O)COc4ccc(Cl)c(F)c4)(C2)C3)cc1` [Compound 407, 2-(4-chloro-3-fluorophenoxy)-N-(3-{2-[4-(2-hydroxypropan-2-yl)phenoxy]acetamido}bicyclo[1.1.1]pentan-1-yl)acetamide] here?
**A.** 50 to 250 nM

**Q.** `Cc1ccc(OCC(=O)NC23CCC(NC(=O)COc4ccc(F)cc4)(CC2)[C@@H](O)C3)cc1F` [Compound 731, 2-(3-fluoro-4-methylphenoxy)-N-{(3S)-4-[2-(4-fluorophenoxy)acetamido]-3-hydroxybicyclo[2.2.2]octan-1-yl}acetamide] was tested. Which EC50 did it give?
**A.** < 10 nM

**Q.** With `Cc1cccc(CS(=O)(=O)NC23CC(NC(=O)COc4ccc(Cl)c(F)c4)(C2)C3)c1` [Compound 486, 2-(4-chloro-3-fluorophenoxy)-N-(3-{[(3-methylphenyl)methanesulfonyl]amino}bicyclo[1.1.1]pentan-1-yl)acetamide] as the compound, how does the EC50 read?
**A.** > 2000 nM

**Q.** `O=C(COc1ccc(OC(F)(F)F)c(F)c1)NC12CCC(NC(=O)COc3ccc(Cl)cc3)(CC1)[C@@H](O)C2` [Compound 759, 2-(4-chlorophenoxy)-N-[(2S)-4-{2-[3-fluoro-4-(trifluoromethoxy)phenoxy]acetamido}-2-hydroxybicyclo[2.2.2]octan-1-yl]acetamide] was tested. Which EC50 did it give?
**A.** < 10 nM

**Q.** How did the EC50 turn out when `O=C(COc1ccc(OC(F)(F)F)cc1)NC12CCC(NC(=O)COc3ccc(F)c(F)c3)(CC1)[C@@H](O)C2` [Compound 784, 2-(3,4-difluorophenoxy)-N-[(2S)-2-hydroxy-4-{2-[4-(trifluoromethoxy)phenoxy]acetamido}bicyclo[2.2.2]octan-1-yl]acetamide] was run?
**A.** < 10 nM

**Q.** Which EC50 does the source give for `O=C(O)/C=C1\CC2(NC(=O)COc3ccc(Cl)c(F)c3)CCC1(NC(=O)COc1ccc(Cl)c(F)c1)CC2` [Compound 669, (2E)-{1,4-bis[2-(4-chloro-3-fluorophenoxy)acetamido]bicyclo[2.2.2]octan-2-ylidene}acetic Acid] here?
**A.** 50 to 250 nM

**Q.** How did the EC50 turn out when `O=C(COc1ccc(Cl)c(F)c1)NC12CC(NC(=O)Cc3cccc(OC(F)(F)F)c3)(C1)C2` [Compound 361, 2-(4-chloro-3-fluorophenoxy)-N-(3-{2-[3-(trifluoromethoxy)phenyl]acetamido}bicyclo[1.1.1]pentan-1-yl)acetamide] was run?
**A.** > 2000 nM

**Q.** For `COc1cc(OC)nc(OCC(=O)NC23CCC(NC(=O)COc4ccc(Cl)c(F)c4)(CC2)C[C@@H]3O)n1` [Compound 498, 2-(4-chloro-3-fluorophenoxy)-N-[(3S)-4-{2-[(4,6-dimethoxypyrimidin-2-yl)oxy]acetamido}-3-hydroxybicyclo[2.2.2]octan-1-yl]acetamide], which EC50 is on record?
**A.** 250 to 500 nM

**Q.** Which EC50 does the source give for `O=C(COc1ccc(OC(F)F)cc1)NC12CC(NC(=O)COc3ccc(Cl)c(F)c3)(C1)C2` [Compound 397, 2-(4-chloro-3-fluorophenoxy)-N-(3-{2-[4-(difluoromethoxy)phenoxy]acetamido}bicyclo[1.1.1]pentan-1-yl)acetamide] here?
**A.** 10 to 50 nM

**Q.** Which EC50 does the source give for `O=C(COc1ccc(Cl)c(F)c1)NC12CCC(NC(=O)COc3ccc(F)cc3)(CC1)[C@@H](O)C2` (single isomer, unassigned) [Compound 354] here?
**A.** < 10 nM

**Q.** For `O=C(COc1ccc(Cl)cc1)NC12CCC(NC(=O)COc3ccc(F)c(C(F)(F)F)c3)(CC1)[C@@H](O)C2` [Compound 830, 2-(4-chlorophenoxy)-N-[(3S)-4-{2-[4-fluoro-3-(trifluoromethyl)phenoxy]acetamido}-3-hydroxybicyclo[2.2.2]octan-1-yl]acetamide], which EC50 is on record?
**A.** < 10 nM

**Q.** How did the EC50 turn out when `Cc1ccc(OCC(=O)NC23CCC(NC(=O)COc4ccc(OC(F)(F)F)c(F)c4)(CC2)[C@@H](O)C3)cc1F` [Compound 733, 2-(3-fluoro-4-methylphenoxy)-N-[(3S)-4-{2-[3-fluoro-4-(trifluoromethoxy)phenoxy]acetamido}-3-hydroxybicyclo[2.2.2]octan-1-yl]acetamide] was run?
**A.** < 10 nM

**Q.** How did the EC50 turn out when `O=C(COc1ccccc1)NC12CC(NC(=O)COc3ccc(Cl)c(F)c3)(C1)C2` [Compound 398, 2-(4-chloro-3-fluorophenoxy)-N-[3-(2-phenoxyacetamido)bicyclo[1.1.1]pentan-1-yl]acetamide] was run?
**A.** 10 to 50 nM

**Q.** `CC(C)(O)c1ccc(OCC(=O)NC23CC(NC(=O)COc4ccc(Cl)c(Cl)c4)(C2)C3)cc1` [Compound 422, 2-(3,4-dichlorophenoxy)-N-(3-{2-[4-(2-hydroxypropan-2-yl)phenoxy]acetamido}bicyclo[1.1.1]pentan-1-yl)acetamide] was tested. Which EC50 did it give?
**A.** 250 to 500 nM

**Q.** With `O=C(COc1ccc(Cl)nc1)NC12CC(NC(=O)COc3ccc(Cl)c(F)c3)(C1)C2` [Compound 225, 2-(4-chloro-3-fluorophenoxy)-N-(3-{2-[(6-chloropyridin-3-yl)oxy]acetamido}bicyclo[1.1.1]pentan-1-yl)acetamide] as the compound, how does the EC50 read?
**A.** 10 to 50 nM
